Test results taken from patent publication US4239903A, “2-Aminotetralin derivatives and process for producing the same” (priority 1977, dated 1980).
Where a name gives a salt, the structure may show the parent alone. Read-outs that look alike come from different tables or passages of the source.

Assays:
[1] = tested on: colonic contraction caused by stimulation of pelvic nerve; assay: Effect on colonic contraction caused by stimulation of pelvic nerve in anesthetized dogs; type: in vivo, dog (mongrel dogs of both sexes); conditions: Canis lupus familiaris, iv; for inhibition in vivo at 0.1 mg/kg: read-out: % Inhibition of Colonic Contraction; for ED50: read-out: c.ID50 (dose causing 50% inhibition of the colonic contraction by pelvic nerve stimulation)
Excerpt: The compounds of the present invention are extremely useful as medicines particularly acting on the lower digestive tract. […] N-Ethyl-N-[4-(3,4-dimethoxybenzoyloxy)butyl]-3-(4-methoxyphenyl)-2-propylamine hydrochloride (hereinafter referred to as "mebeverine") known as an antispasmodic for the lower digestive tract was used as a reference.
The values shown in Table 1 were obtained according to the following method [as disclosed in European Journal of Pharmacology, 18, pp. 1-14 (1972)].
Mongrel dogs of both sexes weighing 8-15 kg were used.
After intravenous anesthesizing with pentobarbital in a dose of 30 mg/kg, the animals were fixed on their back and subjected to ventrotomy along the midline of the lower abdomen. After a rubber balloon filled with water was inserted into the descending colon via the anus, 100 μg/kg of each compound was injected intravenously and changes in the internal pressure of the balloon were recorded on a polygraph through a low pressure transducer. Electric stimulation (rectangular wave, 50 cps in frequency, 1 msec in duration, 4 V in voltage) was applied to the pelvic nerve for 5 seconds every three minutes. The percent inhibition of the colonic contraction was calculated according to the following relationship. [formula]
c.ID50 values were determined by the same method as was used for Table 1.

[2] = tested on: colonic motility stimulated by neostigmine; assay: Effect on colonic motility stimulated by neostigmine in rats; type: in vivo, rat (male STD Wistar strain); conditions: Rattus norvegicus, neostigmine-stimulated, dose at which inhibition was observed in 50% of rats
[3] = as above; type: in vivo, rat (male STD Wistar strain); conditions: rat, in vivo
[4] = Acute toxicity (LD50) in rats; conditions: rat, in vivo
[5] = tested on: contractile response of the stomach to vagal stimulation; assay: Contractile response of the stomach to vagal stimulation in anesthetized dogs; type: in vivo, dog (mongrel dogs of both sexes); conditions: for ED50: Canis lupus familiaris, iv, read-out: s.ID50 (dose causing 50% inhibition of the contractile response of the stomach to vagal stimulation); for s.ID50 /c.ID50 (selectivity of antispasmodic effect): i.v., stomach vs colon
Excerpt: The compounds of the present invention are further characterized by the following property. The compounds of the present invention have selectively stronger antispasmodic effect on the lower part of the digestive tract than on the upper part of the digestive tract, in contrast to conventional anticholinergic antispasmodics which act non-selectively on the digestive tract. The evidence for this selectivity is exemplified by the results shown for representative compounds of the present invention in Table 3. In Table 3, the s.ID50 and c.ID50 values represent the doses causing 50% inhibition of the contractile response of the stomach to vagal stimulation and 50% inhibition of the colonic contraction by pelvic nerve stimulation, respectively, in dogs. These values and their ratios (s.ID50 /c.ID50) indicate that these compounds have higher selectivity than mebeverine, as is clear from Table 3.
The determination of gastric motility was carried out according to the method described in European Journal of Pharmacology, 18, pp. 1-14 (1972).
More specifically mongrel dogs of both sexes weighing 8-15 kg were used. After anesthesizing the animals with 30 mg/kg (i.v.) of pentobarbital, the animals were fixed on their back and a midline incision was made in the upper abdomen. A rubber balloon filled with water was inserted into the stomach through an incision in the greater curvature. Changes in internal pressure of the balloon were recorded on a polygraph via a low pressure transducer. Electric stimulation (rectangular wave, 20 cps in frequency, 1 msec in duration, 8 V in voltage) was applied to the vagus nerve for 10 seconds every three minutes. The percent inhibition of the contractile response of the stomach was calculated from the relationship shown above.

[6] = 100 μg/kg, i.v., pelvic nerve stimulation, anesthetized dogs

| Structure (SMILES) | inhibition in vivo at 0.1 mg/kg [1, 6] [%] | ED50 ([2]; iv) [mg/kg] | ED50 ([2]; po) [mg/kg] | safety margin (LD50/ED50) ([3]; iv) | safety margin (LD50/ED50) ([3]; po) | LD50 ([4]; iv) [mg/kg] | LD50 ([4]; po) [mg/kg] | ED50 ([1]; dogs) [mg/kg] | ED50 ([5]; dogs) [mg/kg] | s.ID50 /c.ID50 (selectivity of antispasmodic effect) ([5]; dogs) | inhibition in vivo at 0.1 mg/kg [1] [%] | ED50 [1] [mg/kg] | ED50 [5] [mg/kg] |
| --- | --- | --- | --- | --- | --- | --- | --- | --- | --- | --- | --- | --- | --- |
| CCCN(CCCCOC(=O)c1ccc(OC)c(OC)c1)C1CCc2cc(OC)ccc2C1.Cl (stereo not drawn) [Compound E, N-Propyl-N-[4-(3,4-dimethoxybenzoyloxy)butyl]-6-methoxy-1,2,3,4-tetrahydro-2-naphthylamine hydrochloride] | 22.4 | 0.173 | 17.3 | 129 | 41 | 22.3 | 707 | – | – | – | – | – | – |
| CCN(CCCCCCOC(=O)c1ccc(OC)c(OC)c1)C1CCc2cc(OC)c(OC)cc2C1.Cl (stereo not drawn) [Compound G, N-Ethyl-N-[6-(3,4-dimethoxybenzoyloxy)hexyl]-6,7-dimethoxy-1,2,3,4-tetrahydro-2-naphthylamine hydrochloride] | 54.2 | 0.02 | 1.7 | 885 | 330 | 17.5 | 561 | – | – | – | – | – | – |
| CCN(CCCCOC(=O)c1ccc(OC)c(OC)c1)C1CCc2ccccc2C1 (stereo not drawn) [Compound A, N-Ethyl-N-[4-(3,4-dimethoxybenzoyloxy)butyl]-1,2,3,4-tetrahydro-2-naphthylamine hydrochloride] | 27.9 | – | – | – | – | – | – | – | – | – | – | – | – |
| COc1ccc2c(c1)CCC(N(CCCCOC(=O)c1ccc(OC)c(OC)c1)C(C)C)C2.Cl (stereo not drawn) [Compound L, N-Isopropyl-N-[4-(3,4-dimethoxybenzoyloxy)butyl]-6-methoxy-1,2,3,4-tetrahydro-2-naphthylamine hydrochloride] | – | 0.173 | 17.3 | – | 89 | – | 1540 | – | – | – | – | – | – |
| CCN(CCCCCCOC(=O)c1ccc(OC)c(OC)c1)C1CCc2cc(OC)ccc2C1.Cl (stereo not drawn) [Compound D, N-Ethyl-N-[6-(3,4-dimethoxybenzoyloxy)hexyl]-6-methoxy-1,2,3,4-tetrahydro-2-naphthylamine hydrochloride] | 54.7 | 0.046 | 5.5 | 767 | 515 | 35.3 | 2830 | 0.083 | 0.614 | 7.40 | – | – | – |
| CCN(CCCCOC(=O)c1ccc(OC)c(OC)c1)C1CCc2cccc(OC)c2C1 (stereo not drawn) [Compound K, N-Ethyl-N-[4-(3,4-dimethoxybenzoyloxy)butyl]-8-methoxy-1,2,3,4-tetrahydro-2-naphthylamine hydrochloride] | 40 | – | – | – | – | – | – | – | – | – | – | – | – |
| CCN(CCCCOC(=O)c1ccc(OC)c(OC)c1)C1CCc2cc(OC)ccc2C1.Cl (stereo not drawn) [Compound C, N-Ethyl-N-[4-(3,4-dimethoxybenzoyloxy)butyl]-6-methoxy-1,2,3,4-tetrahydro-2-naphthylamine hydrochloride] | 20 | 0.169 | 14.4 | 114 | > 139 | 19.3 | > 2000 | – | – | – | – | – | – |
| CCN(CCCCOC(=O)c1ccc(OC)c(OC)c1)C1CCc2ccc(OC)cc2C1 (stereo not drawn) [Compound H, N-Ethyl-N-[4-(3,4-dimethoxybenzoyloxy)butyl]-7-methoxy-1,2,3,4-tetrahydro-2-naphthylamine hydrochloride] | 30.9 | – | – | – | – | – | – | – | – | – | – | – | – |
| CCN(CCCCOC(=O)c1ccc(OC)c(OC)c1)C1CCc2cc(OC)c(OC)cc2C1.Cl (stereo not drawn) [Compound F, N-Ethyl-N-[4-(3,4-dimethoxybenzoyloxy)butyl]-6,7-dimethoxy-1,2,3,4-tetrahydro-2-naphthylamine hydrochloride] | 63.8 | 0.025 | 5.5 | 648 | 280 | 16.2 | 1540 | 0.057 | 0.266 | 4.67 | – | – | – |
| CCN(CCCCOC(=O)c1ccc(OC)c(OC)c1)C(C)Cc1ccc(OC)cc1.Cl (stereo not drawn) [Mebeverine, N-Ethyl-N-[4-(3,4-dimethoxybenzoyloxy)butyl]-3-(4-methoxyphenyl)-2-propylamine hydrochloride, reference compound] | – | 0.151 | 30 | – | – | 17.7 | 1540 | – | – | < 2.74 | 22 | > 0.3 | 0.823 |
| CCN(CCCCCCOC(=O)c1ccc(OC)c(OC)c1)C1CCc2ccccc2C1.Cl (stereo not drawn) [Compound B, N-Ethyl-N-[6-(3,4-dimethoxybenzoyloxy)hexyl]-1,2,3,4-tetrahydro-2-naphthylamine hydrochloride] | 56 | 0.086 | 5.5 | 206 | > 364 | 17.7 | > 2000 | – | – | – | – | – | – |
